How the values were obtained:
[1] = Selectivity index, ratio of IC50 for electric eel AChE to IC50 for equine serum BuChE
Acetylcholinesterase = Acetylcholinesterase (Electrophorus electricus, UniProt O42275); assay: Inhibition of electric eel AChE using ATCI as substrate preincubated for 30 mins followed by substrate addition measured after 5 mins by DTNB-based spectrophotometric analysis
Cholinesterase = Cholinesterase (Equus caballus, UniProt P81908); assay: Inhibition of equine serum BuChE using ATCI as substrate preincubated for 30 mins followed by substrate addition measured after 5 mins by DTNB-based spectrophotometric analysis
Chain of Cholinesterase (P81908 whole entry): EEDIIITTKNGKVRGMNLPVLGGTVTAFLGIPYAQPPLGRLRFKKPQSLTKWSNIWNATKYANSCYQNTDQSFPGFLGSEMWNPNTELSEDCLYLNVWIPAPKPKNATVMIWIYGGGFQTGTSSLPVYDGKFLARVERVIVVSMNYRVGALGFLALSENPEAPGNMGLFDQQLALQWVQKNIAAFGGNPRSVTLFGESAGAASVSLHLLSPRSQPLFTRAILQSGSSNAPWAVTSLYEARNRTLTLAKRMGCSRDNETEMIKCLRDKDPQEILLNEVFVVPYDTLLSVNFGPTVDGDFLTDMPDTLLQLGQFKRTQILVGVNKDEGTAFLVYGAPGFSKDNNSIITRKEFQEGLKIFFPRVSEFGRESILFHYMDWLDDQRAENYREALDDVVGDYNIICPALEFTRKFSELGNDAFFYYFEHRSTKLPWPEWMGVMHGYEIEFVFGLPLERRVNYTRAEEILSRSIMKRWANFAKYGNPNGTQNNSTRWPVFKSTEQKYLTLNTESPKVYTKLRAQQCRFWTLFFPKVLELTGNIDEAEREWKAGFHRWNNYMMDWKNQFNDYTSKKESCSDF

Chain of Acetylcholinesterase (O42275 whole entry): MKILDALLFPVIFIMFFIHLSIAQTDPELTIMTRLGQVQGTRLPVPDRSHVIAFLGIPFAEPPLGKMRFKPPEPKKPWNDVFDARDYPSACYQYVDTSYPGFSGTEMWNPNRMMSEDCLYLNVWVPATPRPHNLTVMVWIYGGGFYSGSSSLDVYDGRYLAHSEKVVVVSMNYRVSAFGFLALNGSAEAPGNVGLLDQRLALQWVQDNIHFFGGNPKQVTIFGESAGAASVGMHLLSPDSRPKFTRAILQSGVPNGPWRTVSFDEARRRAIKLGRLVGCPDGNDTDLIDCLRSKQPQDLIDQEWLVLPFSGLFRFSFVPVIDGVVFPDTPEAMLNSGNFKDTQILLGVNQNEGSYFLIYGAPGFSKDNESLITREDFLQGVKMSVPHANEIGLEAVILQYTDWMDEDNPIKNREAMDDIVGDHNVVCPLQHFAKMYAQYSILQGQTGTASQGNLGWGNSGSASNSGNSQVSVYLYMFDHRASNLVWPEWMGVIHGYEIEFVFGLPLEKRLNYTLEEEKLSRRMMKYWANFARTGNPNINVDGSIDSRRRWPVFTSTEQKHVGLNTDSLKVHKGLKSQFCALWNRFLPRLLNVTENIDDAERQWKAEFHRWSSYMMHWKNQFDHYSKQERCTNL

SMILES	Ratio IC50 [1]	IC50 (Acetylcholinesterase) [µM]	IC50 (Cholinesterase) [µM]
CN1CC[C@@H]2C[C@H](O)[C@H]3OC(=O)c4c(cc5c(c4O)OCO5)[C@H]3[C@@H]21	1.69	114	67.3
CO[C@H]1[C@H]2C(=CC[C@@H]1O)[C@H]1CN2Cc2cc3c(cc21)OCO3	–	> 200	> 200
O[C@H]1C=C2[C@H]3CN(Cc4cc5c(cc43)OCO5)[C@H]2C[C@@H]1O	–	> 200	> 200
CO[C@H]1C=C2[C@H]3C[N@@](Cc4cc5c(cc43)OCO5)[C@H]2C[C@@H]1O [MONTANINE]	–	> 200	> 200
O[C@H]1[C@H]2c3cc4c(cc3CN3CCC(=C[C@@H]1O)[C@H]23)OCO4 [LYCORINE]	–	–	> 200

— ChEMBL document CHEMBL3853276, “Alkaloids from Hippeastrum argentinum and Their Cholinesterase-Inhibitory Activities: An in Vitro and in Silico Study” (J Nat Prod, 2016)
